Legend:
Format in all cases: physicochemical
[1] = Particle size analysis, Malvern Mastersizer 2000; conditions: dispersant 0.2% (w/v) Igepal in RO water
Protocol: Particle size analysis was performed on the particles using a Malvern Mastersizer 2000 particle size analyzer equipped with a Hydro2000S sample dispersion unit. Instrument parameters and experimental conditions are set forth below:
A 50 mg±5 mg of sample of particles was weighed and placed in a 20 mL plastic blood dilution vial. Five drops of dispersant (0.2% (w/v) Igepal in RO water) was added to the vial and mixed to a slurry using the flat end of a spatula. Dispersant (20 mL) was then added and stirred with a spatula to begin dispersion. The sample vial was placed onto a magnetic stir plate and stirred for 5 minutes. While stirring, we withdrew an aliquot of the dispersed sample using a transfer pipet and transferred it to the Hydro2000S until an obscuration of 10-30% was obtained. The sample was allowed to recirculate for 5 minutes at 2500 RPM prior to initiating the sample measurement.

[2] = Stability comparison of crystalline forms: temperature of dehydration
Description: Stability of crystalline 3-(3-methoxy-4-((4-methoxybenzyl)oxy)benzyl)-6-(1-methyl-1H-pyrazol-4-yl)-3H-imidazo[4,5-b]pyridin-2-amine monohydrate Form 3 was compared to crystalline 3-(3-methoxy-4-((4-methoxybenzyl)oxy)benzyl)-6-(1-methyl-1H-pyrazol-4-yl)-3H-imidazo[4,5-b]pyridin-2-amine monohydrate Form 1. The physical property analyzed was temperature of dehydration. Crystalline 3-(3-methoxy-4-((4-methoxybenzyl)oxy)benzyl)-6-(1-methyl-1H-pyrazol-4-yl)-3H-imidazo[4,5-b]pyridin-2-amine monohydrate Form 1 is that described in international patent application publication WO 2016/100677.

[3] = Dynamic vapor sorption (hygroscopicity); conditions: 2 cycles of increasing and decreasing relative humidity at 25° C., FIG. 3
Protocol: A dynamic vapor sorption isotherm plot of crystalline 3-(3-methoxy-4-((4-methoxybenzyl)oxy)benzyl)-6-(1-methyl-1H-pyrazol-4-yl)-3H-imidazo[4,5-b]pyridin-2-amine monohydrate Form 3 is provided in FIG. 3. The dynamic vapor sorption isotherm plot results are from the procedure where after a drying stage at 0% relative humidity, compound sample was exposed to 2 cycles of increasing and decreasing relative humidity at 25° C., with steps of 5% relative humidity, where mass of the sample was recorded throughout the experiment.

## COc1ccc(COc2ccc(Cn3c(N)nc4cc(-c5cnn(C)c5)cnc43)cc2OC)cc1 [Particles Prepared in Part I, 3-(3-methoxy-4-((4-methoxybenzyl)oxy)benzyl)-6-(1-methyl-1H-pyrazol-4-yl)-3H-imidazo[4,5-b]pyridin-2-amine monohydrate]
[1]
  Particle Size Parameter D10: 18.6 µm
  Particle Size Parameter D50: 56.5 µm
  Particle Size Parameter D90: 131 µm

## COc1ccc(COc2ccc(Cn3c(N)nc4cc(-c5cnn(C)c5)cnc43)cc2OC)cc1 [Form 3, 3-(3-methoxy-4-((4-methoxybenzyl)oxy)benzyl)-6-(1-methyl-1H-pyrazol-4-yl)-3H-imidazo[4,5-b]pyridin-2-amine monohydrate]
[2]; heated
  temperature of dehydration: 130 °C
[3]
  hygroscopicity (dynamic vapor sorption isotherm): not hygroscopic

## COc1ccc(COc2ccc(Cn3c(N)nc4cc(-c5cnn(C)c5)cnc43)cc2OC)cc1 [Form 1, 3-(3-methoxy-4-((4-methoxybenzyl)oxy)benzyl)-6-(1-methyl-1H-pyrazol-4-yl)-3H-imidazo[4,5-b]pyridin-2-amine monohydrate]
[2]; under a stream of nitrogen gas
  temperature of dehydration: room temperature

— patent US20240383892A1, “PARTICLES OF IMIDAZO[4,5-b]PYRIDINE COMPOUND, PHARMACEUTICAL COMPOSITIONS, AND THEIR USE IN TREATING MEDICAL CONDITIONS” (Centrexion Therapeutics Corporation, priority 2023, published 2024)
